Literature values in patent US5424332A, “Pharmaceutical composition and process for the production thereof” (priority 1993, dated 1995).

Test system: aflotoxin toxic effects

O=C(O)/C=C/C(=O)O [fumaric acid]
toxic effects of aflotoxin: reduces the toxic effects
